Test systems include CAKI-1 renal; UACC-257 melanoma; SK-MEL-2 melanoma; DU-145 prostate; HS 578T breast; HCT-15 colon; HT29 colon; NCI-H226 lung; 786-0 renal; UO-31 renal; HOP-62 NSCLC; RXF 393 renal; BT-549 breast; SK-MEL-5 melanoma; SK-MEL-28 melanoma; K-562 leukemia.
What all share (test): inhibition of tumour cell growth, NCI panel, 48 h

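Five concentrations, 48 hours, 96-well plates. At the TGI there is no net growth.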

As to `COC(=O)c1c2n(c3ccccc13)C[C@H]1OC(C)(C)O[C@@H]21`, the TGI in the assay with CAKI-1 renal, in the assay on UACC-257 melanoma, in the assay with SK-MEL-2 melanoma, in the assay on DU-145 prostate, in the assay on HS 578T breast and in the assay on HCT-15 colon was more than 100 µM in each case. Further, the TGI with HT29 colon, in the assay with NCI-H226 lung, with 786-0 renal, in the assay on UO-31 renal, in the assay on HOP-62 NSCLC and with RXF 393 renal was more than 100 µM in each case. Moreover, the TGI in the assay on BT-549 breast, in the assay on SK-MEL-5 melanoma, in the assay with SK-MEL-28 melanoma and in the assay on K-562 leukemia was more than 100 µM in each case.
As for `CC1CCCc2c(C#N)c(N)nc(-c3ccc(Cl)cc3)c21` (configuration not stated), the TGI was more than 100 µM in the assay with CAKI-1 renal; 79.9 µM in the assay on UACC-257 melanoma; 44.4 µM with SK-MEL-2 melanoma; more than 100 µM in the assay with DU-145 prostate; more than 100 µM with HS 578T breast; more than 100 µM with HCT-15 colon. In addition, the TGI in the assay with HT29 colon came out at 44.4 µM; in the assay with NCI-H226 lung, 43.3 µM; with 786-0 renal, 38.2 µM; in the assay on UO-31 renal it was 79.7 µM; with HOP-62 NSCLC it was 24.8 µM; with RXF 393 renal it was 21.5 µM. The TGI with BT-549 breast is more than 100 µM; with SK-MEL-5 melanoma, 35.9 µM; in the assay with SK-MEL-28 melanoma, more than 100 µM; in the assay with K-562 leukemia, more than 100 µM.
Take `Cc1cc(=O)[nH]c(NN2C(Cl)C(=O)C2c2ccc(Cl)cc2)n1` (configuration not stated): the TGI with CAKI-1 renal is 30.7 µM; in the assay on UACC-257 melanoma, more than 55.1 µM; in the assay with SK-MEL-2 melanoma, 46.4 µM; in the assay on DU-145 prostate, 66.6 µM; in the assay with HS 578T breast, 93.5 µM; in the assay on HCT-15 colon, more than 53.8 µM. Also, the TGI in the assay on HT29 colon is 54.9 µM; in the assay with NCI-H226 lung, 42 µM; in the assay with 786-0 renal it was 33 µM; in the assay on UO-31 renal it was more than 60.9 µM; in the assay with HOP-62 NSCLC, 48.6 µM; with RXF 393 renal it was 45.1 µM. Moreover, the TGI was 86.9 µM in the assay on BT-549 breast, 25.7 µM in the assay on SK-MEL-5 melanoma, 49.6 µM with SK-MEL-28 melanoma and 16.2 µM in the assay on K-562 leukemia.
For `COc1ccc(NC2Oc3cc4c(cc3C(c3cccc(OC)c3OC)C2C)OCO4)cc1` (configuration not stated), the TGI in the assay on CAKI-1 renal is more than 100 µM; in the assay on UACC-257 melanoma, 69.2 µM; in the assay on SK-MEL-2 melanoma, 70.2 µM; in the assay on DU-145 prostate, more than 100 µM; in the assay on HS 578T breast, 61.5 µM; in the assay on HCT-15 colon, more than 100 µM. In addition, the TGI in the assay with HT29 colon was more than 100 µM; in the assay with NCI-H226 lung it was more than 100 µM; in the assay with 786-0 renal it was more than 100 µM; with UO-31 renal, more than 100 µM; with HOP-62 NSCLC it was more than 100 µM; in the assay on RXF 393 renal, 50.2 µM. The TGI with BT-549 breast was more than 100 µM; in the assay on SK-MEL-5 melanoma, 56 µM; in the assay with SK-MEL-28 melanoma, 85.7 µM; in the assay on K-562 leukemia, 70.6 µM.
Consider `CC1=C(N2CC2)C(=O)c2nc3n(c2C1=O)CCC3OC(=O)CCl` (configuration not stated), for which the TGI with CAKI-1 renal amounted to 0.174 µM; with UACC-257 melanoma it was 0.235 µM; in the assay with SK-MEL-2 melanoma it was 0.271 µM; in the assay with DU-145 prostate, 0.19 µM; in the assay with HS 578T breast, 0.0784 µM; with HCT-15 colon, 0.0825 µM. In addition, the TGI with HT29 colon came out at 0.337 µM; in the assay on NCI-H226 lung it was 0.17 µM; with 786-0 renal, 0.191 µM; in the assay on UO-31 renal it was 0.0944 µM; in the assay on HOP-62 NSCLC, 0.145 µM; in the assay with RXF 393 renal, 0.069 µM. In addition, the TGI in the assay with BT-549 breast was found to be 0.0444 µM; in the assay on SK-MEL-5 melanoma it was 0.0893 µM; in the assay on SK-MEL-28 melanoma, 0.141 µM; with K-562 leukemia, 1.61 µM.
In the case of `CCOC(=O)CSc1nc(-c2ccccc2)c(C#N)c(=O)[nH]1`, the TGI in the assay on CAKI-1 renal, in the assay on UACC-257 melanoma, in the assay on SK-MEL-2 melanoma, with DU-145 prostate, in the assay on HS 578T breast and in the assay on HCT-15 colon was more than 100 µM throughout. Besides, the TGI in the assay on HT29 colon, with NCI-H226 lung, in the assay on 786-0 renal, in the assay on UO-31 renal, with HOP-62 NSCLC and in the assay with RXF 393 renal was more than 100 µM throughout. Further, the TGI in the assay on BT-549 breast, with SK-MEL-5 melanoma, with SK-MEL-28 melanoma and with K-562 leukemia was more than 100 µM in each case.
For `COc1ccc(NC(=O)CC(=O)N2N=C(C)C(N=Nc3ccc(S(=O)(=O)c4ccc(N=NC5C(=O)N(C(=O)CC(=O)Nc6ccc(OC)cc6)N=C5C)cc4)cc3)C2=O)cc1` (configuration not stated), the TGI in the assay with CAKI-1 renal, in the assay on UACC-257 melanoma, with SK-MEL-2 melanoma, in the assay on DU-145 prostate, in the assay on HS 578T breast and in the assay on HCT-15 colon was more than 100 µM throughout. Further, the TGI in the assay on HT29 colon, in the assay with NCI-H226 lung, in the assay with 786-0 renal, in the assay on UO-31 renal, in the assay on HOP-62 NSCLC and in the assay on RXF 393 renal was more than 100 µM throughout. The TGI in the assay with BT-549 breast, with SK-MEL-5 melanoma, in the assay on SK-MEL-28 melanoma and in the assay with K-562 leukemia was more than 100 µM each time.

The values above are taken from PubChem BioAssay (NCI).
